Source: patent publication US20250074911A1, “MACROCYCLIC BTK INHIBITORS” (Crossfire Oncology Holding B.V., priority 2021, published 2025)
Like-named read-outs stand apart in the source and are kept apart here.

How the values were obtained:
[1] = biological target: full-length wt-BTK enzyme (Homo sapiens (Human), UniProt Q06187); assay: Biochemical kinase assay wt-BTK (IMAP)
Outline: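 IMAP fluorescence polarization assay: 1.2 nM enzyme pre-incubated 1 h with compound at room temperature, then 50 nM fluorescein-labeled MBP-derived peptide and 4 μM ATP added. Reaction ran 2 h at room temperature in the dark before quenching with IMAP binding solution.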

[2] = biological target: full-length BTK C481S enzyme (Homo sapiens (Human), UniProt Q06187, C481S); assay: Biochemical kinase assay BTK C481S (IMAP)
Outline: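 Full-length BTK C481S (1.2 nM) was pre-incubated with compound for 1 h at room temperature in the dark, then reacted with fluorescein-labelled MBP-derived peptide (50 nM) and ATP (7 μM) for 2 h. Reactions were quenched with IMAP binding solution, and IC50 values were derived from fluorescence polarization.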

[3] = system: wt-REC-1 mantle cell lymphoma cells; assay: Cell proliferation assay wt-REC-1 (ATPlite, 72 hours); format: cell-based
Outline: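 Luminescent viability read over 72 h, start-of-incubation signal recorded separately to separate growth from cell death. Percentage growth referenced to compound-free 0.3% DMSO wells; IC50 from 4-parameter logistic fit.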

REC-1 T474I cell lines = assay: Cell proliferation assay REC-1 BTK T474I knock-in cells (ATPlite, 72 hours); format: cell-based; conditions: Homo sapiens, read-out: IC50 REC-1 T474I
Outline: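 REC-1 cells carrying CRISPR knock-in mutant BTK, single-cell cloned and sequence-confirmed, were exposed to compound for 72 h and read by ATPlite luminescence. Percentage growth was calculated against the signal at the start of incubation and against untreated 0.3% DMSO wells as maximum growth.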

[4] = system: wt-TMD8 diffuse large B-cell lymphoma cells; assay: Cell proliferation assay wt-TMD8 (ATPlite, 120 hours); format: cell-based; conditions: B-cell, read-out: IC50 wt-TMD8
Method: Cell proliferation assay wt-TMD8 diffuse large B-cell lymphoma cells were purchased from Tokyo Medical and Dental University and cultured in RPMI-1640 cell culture medium (cat. no. 61870036, Life Technologies), supplemented with 10% (v/v) heat-inactivated fetal bovine calf serum and 1% penicillin/[…]. 1600 cells per well (in 45 μl) were seeded in a white 384-well culture plate (cat. no. 781080, Greiner Bio-One) and allowed to rest for at least 5 hours at 37° C., 95% humidity, and 5% CO2. 5 μl compound solution was added to the cells and incubation was continued for 120 hours (5 days), followed by addition of 24 μl ATPlite 1Step™ (PerkinElmer, Groningen, The Netherlands) solution was added to each well. Luminescence was recorded on an Envision multimode reader. The cell signal at the start of incubation was recorded separately in order to distinguish between cell population growth and cell death. In addition, maximum growth was determined by incubation of a duplicate without compound in the presence of 0.3% DMSO. Percentage growth was used as the main y-axis signal.

[5] = wt-TMD8 cells, 120 hours, ATPlite

Chain of full-length wt-BTK enzyme (Q06187 whole entry): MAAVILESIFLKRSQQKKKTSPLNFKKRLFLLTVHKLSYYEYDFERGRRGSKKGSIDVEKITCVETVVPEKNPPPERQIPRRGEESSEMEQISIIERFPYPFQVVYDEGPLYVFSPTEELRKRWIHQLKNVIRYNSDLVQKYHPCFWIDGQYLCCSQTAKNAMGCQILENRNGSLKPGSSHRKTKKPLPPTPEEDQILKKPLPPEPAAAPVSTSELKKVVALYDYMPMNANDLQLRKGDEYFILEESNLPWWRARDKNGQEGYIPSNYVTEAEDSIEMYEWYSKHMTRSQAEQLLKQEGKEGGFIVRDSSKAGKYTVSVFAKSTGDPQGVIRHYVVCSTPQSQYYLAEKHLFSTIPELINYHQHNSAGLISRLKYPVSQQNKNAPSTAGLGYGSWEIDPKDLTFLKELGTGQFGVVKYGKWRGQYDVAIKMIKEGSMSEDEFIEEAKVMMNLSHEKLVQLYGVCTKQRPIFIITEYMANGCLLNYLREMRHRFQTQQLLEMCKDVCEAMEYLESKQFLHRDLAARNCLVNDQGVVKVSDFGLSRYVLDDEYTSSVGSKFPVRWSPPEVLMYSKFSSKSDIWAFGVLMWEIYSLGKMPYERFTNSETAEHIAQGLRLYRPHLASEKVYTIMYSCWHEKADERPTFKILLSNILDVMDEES
Chain of full-length BTK C481S enzyme (Q06187 whole entry C481S): as the sequence (Q06187 whole entry) above, with C481S counted along it

Structure (SMILES)	IC50 [1] [nM]	IC50 [2] [nM]	IC50 ([3]; 72 h; read-out: IC50 wt-REC-1) [nM]	IC50 (REC-1 T474I cell lines; Rec1, 72 hours) [nM]	IC50 [4, 5] [nM]	IC50 ([3]; 72 h, read-out: IC50 wt-REC-1) [nM]	IC50 (REC-1 T474I cell lines; Rec1, 72 h) [nM]	IC50 ([4]; 120 h) [nM]
Nc1ncc2c3c1c(-c1ccc(C(=O)Nc4cc(C(F)(F)F)ccn4)cc1)nn3[C@@H]1CCC[C@H](C1)NC(=O)CCCCCC/C=C\C2 [Example 103b]	< 5	< 5	100 to 1000	100 to 500	< 100	–	–	–
Nc1ncc2c3c1c(-c1ccc(C(=O)Nc4ccccn4)cc1)nn3[C@@H]1CCC[C@H](C1)NC(=O)COC/C=C\C2 [Example 104b]	50 to 500	5 to 50	100 to 1000	500 to 10000	100 to 1000	–	–	–
Nc1ncc2c3c1c(-c1ccc(C(=O)Nc4cc(C(F)(F)F)ccn4)cc1)nn3[C@@H]1CCC[C@H](C1)NC(=O)CNC/C=C\C2 [Example 105]	5 to 50	5 to 50	1000 to 10000	500 to 10000	100 to 1000	–	–	–
Nc1ncc2c3c1c(-c1ccc(C(=O)Nc4ccccn4)cc1)nn3[C@@H]1CCC[C@H](C1)C(=O)NCCCCCCC2 [Example 118]	< 5	< 5	< 100	500 to 10000	< 100	–	–	–
Nc1ncc2c3c1c(-c1ccc(C(=O)Nc4cc(C(F)(F)F)ccn4)cc1)nn3[C@@H]1CCC[C@H](C1)C(=O)NCCCCCCCC2 [Example 119]	< 5	< 5	< 100	500 to 10000	< 100	–	–	–
Nc1ncc2c3c1c(-c1ccc(C(=O)Nc4ccccn4)cc1)nn3[C@@H]1CCC[C@H](C1)C(=O)NCCCCCCCCC2 [Example 123]	< 5	< 5	100 to 1000	500 to 10000	< 100	–	–	–
[2H]C1CCCCNC(=O)[C@@H]2CCC[C@H](C2)n2nc(-c3ccc(C(=O)Nc4cc(C(F)(F)F)ccn4)cc3)c3c(N)ncc(c32)C1[2H] (stereo partly shown) [Example 128]	< 5	< 5	100 to 1000	100 to 500	< 100	–	–	–
CN1C/C=C/c2cnc(N)c3c(-c4ccc(C(=O)Nc5cc(C(F)(F)F)ccn5)cc4)nc(n23)[C@@H]2CCCN(C2)C(=O)CCCC1 [Example 129]	< 5	< 5	–	–	–	100 to 1000	500 to 10000	< 100
[2H]C1([2H])/C=C/c2cnc(N)c3c(-c4ccc(C(=O)Nc5cc(C(F)(F)F)ccn5)cc4)nn(c23)[C@@H]2CCC[C@H](C2)NC(=O)CCCC1 [Example 137]	< 5	< 5	< 100	< 100	< 100	–	–	–
Nc1ncc2c3c1c(-c1ccc(C(=O)Nc4cc(C(F)(F)F)ccn4)cc1)nn3[C@@H]1CCC[C@H](C1)NC(=O)CCCC(F)(F)/C=C/2 [Example 138]	5 to 50	5 to 50	< 100	500 to 10000	< 100	–	–	–
CN1CCCCc2cnc(N)c3c(-c4ccc(C(=O)Nc5cc(C(F)(F)F)ccn5)cc4)nn(c23)[C@@H]2CCC[C@H](C2)C(=O)NCC1 [Example 140]	< 5	< 5	1000 to 10000	500 to 10000	< 100	–	–	–
C[C@@H]1CCn2nc(-c3ccc(C(=O)Nc4cc(C(F)(F)F)ccn4)cc3)c3c(N)ncc(c32)/C=C/CN2CCN[C@H](C2)C(=O)N1 [Example 142]	< 5	< 5	100 to 1000	500 to 10000	< 100	–	–	–
CC1NC/C=C/c2cnc(N)c3c(-c4ccc(C(=O)Nc5cc(C(F)(F)F)ccn5)cc4)nn(c23)[C@@H]2CCC[C@H](C2)NC1=O (stereo partly shown) [Example 145]	< 5	< 5	1000 to 10000	500 to 10000	< 100	–	–	–
C[C@@H]1CCn2nc(-c3ccc(C(=O)Nc4cc(C(F)(F)F)ccn4)cc3)c3c(N)ncc(c32)/C=C/CN2CC[C@H](C2)C(=O)N1 [Example 148]	< 5	< 5	100 to 1000	500 to 10000	< 100	–	–	–
